# Legend:
# [1] = system: 293 cells; experiment: SEAP assay: iMC (tandem FKBP) scaffold plus FRBL2-Caspase-9; type: cell-based; details: tandem FKBPs (iMC) present
# Procedure: FIGS. 16A and 16B are line graphs showing that tandem FKBP scaffold mediates FRBL2. Caspase activation in the presence of rapalogs. FIG. 16A. HEK-293 cells were transfected with 1 μg each of SRα-SEAP reporter plasmid, Δmyr.iMC.2A-anti-CD19.CAR.CD3ζ (pBP0608), and FRBL2. Caspase-9 (pBP0467). […] After ON incubation, cell supernatants were assayed for SEAP activity, as previously described. FIG. 16B. Similar to the experiment described in (FIG. 16A), except that cells were transfected with a membrane-localized (myristoylated) iMC.2A-CD19.CAR.CD3ζ (pBP0609), instead of non-myristoylated Δmyr.iMC.2A-CD19.CAR.CD3ζ (pBP0608).
# In a second test for rapalog-mediated scaffold-based activation of Caspase-9, 293 cells were transiently transfected with SRα-SEAP reporter plasmid, plus myristoylated or non-myristoylated inducible iMC co-expressed with 1st generation anti-CD19 CAR, plus FRBL2-fused Caspase-9 (plasmid pBP0467) (FIG. 16).
# [2] = system: 293T cells; experiment: SeAP reporter assay: FRBL-Caspase9 plus FKBPv12-Caspase9 heterodimerization; type: cell-based; details: FRBL-Caspase 9 plus FKBPV12-Caspase 9
# Procedure: HEK 293T cells (5×10^5) were seeded on a 100-mm tissue culture dish in 10 mL DMEM4500, supplemented with glutamine, penicillin/streptomycin and 10% fetal calf serum. After 16-30 hours incubation, cells were transfected using Novagen's GeneJuice® protocol. Briefly, for each transfection, 0.5 mL OptiMEM was pipetted into a 1.5-mL microcentrifuge tube and 15 μL GeneJuice reagent added followed by 5 sec. vortexing. Samples were rested 5 minutes to settle the GeneJuice suspension. DNA (5 μg total) was added to each tube and mixed by pipetting up and down four times. Samples were allowed to rest for 5 minutes for GeneJuice-DNA complex formation and the suspension added dropwise to one dish of 293T cells. […]
# 24 hours after drug stimulation, 96-well plates were wrapped to prevent evaporation and incubated at 65° C. for 2 hours to inactivate endogenous and serum phosphatases while the heat-stable SeAP reporter remains (1, 4, 12). […] Phosphatase activity was measured by fluorescence with excitation at 355 nm and emission at 460 nm. […]
# FIG. 37—Drug induced programmed cell death by homodimerization or heterodimerization of tagged caspase 9. […] Reporter activity is expressed as a percentage of the average of 8 control wells containing no drug. […]
# FIG. 38—Rapalog-induced cell death switch. […] Reporter activity is expressed as a percentage of the average of 8 wells containing no drug. […]
structure (smiles),measurement,setting,value
"COC1CC(CC(C)C2CC(=O)C(C)C=C(C)C(O)C(OC)C(=O)C(C)CC(C)C=CC=CC=C(C)C(OC(C)C)CC3CCC(C)C(O)(O3)C(=O)C(=O)N3CCCCC3C(=O)O2)CCC1O (centres unmarked) [C7-isopropoxy-rapamycin, C7-isopropoxyrapamycin]",activation of FRBL2-Caspase-9,[1],activated
same,cell death (loss of SeAP reporter),[2],dose-dependent high efficacy cell death switch
